# Reference: US9629828B2, “Methods of treating traveler's diarrhea and hepatic encephalopathy” (priority 2008, dated 2017)
# “And” between values parts separate entries of the source, which are not always exact repeats. Equal values may be shown once. “Also recorded” adds a separate entry of the source.
# Legend:
# [1] = system: subjects in remission from hepatic encephalopathy (HE); test: First study: Conn score (time to any increase, change from baseline); format: in vivo, human; settings: for Event probability (increase in Conn score during the treatment interval) / Probability of no increase in Conn score: Kaplan-Meier; for Event probability (increase in Conn score during the treatment interval) / Probability of no increase in Conn score / Cumulative number of events (increase in Conn score) / Number of events (increase in Conn score): ITT, N = 140
# Description: The scale used in the Conn scoring system is provided below. • Grade 0=No personality or behavioral abnormality detected • Grade 1=Trivial lack of awareness, euphoria or anxiety; shortened attention span; impairment of addition or subtraction • Grade 2=Lethargy; disorientation for time; obvious personality change; inappropriate behavior • Grade 3=Somnolence to semi-stupor, responsive to stimuli; confused; gross disorientation; bizarre behavior • Grade 4=Coma; unable to test mental state
# Change in mental status was measured by the Conn score (also known as the West Haven score). The Conn score has been widely used as a measure of mental state in HE studies and is based on the criteria of Parsons-Smith as modified by Conn. The scale used in the Conn scoring system is described above.
# Subjects who discontinued prior to experiencing an increase in Conn score and prior to completion of the 6-month treatment period were censored at the time of discontinuation.
# [2] = system: subjects with a history of recurrent, overt, episodic HE; test: Second study (3002, open-label extension): breakthrough overt HE; format: in vivo, human
# Procedure: Unlike the first study, subjects were not required to withdraw from the study after experiencing a breakthrough overt HE episode.
# Conn scores and asterixis grades were assessed during the course of the study.
# Therefore, the incidence of breakthrough overt HE over time during rifaximin therapy was evaluated. Table 24 presents breakthrough overt HE episodes by total number of HE episodes during the course of the study.
# Most subjects in the second study (152 of 266) were also in the first study. […] The numbers of overt HE episodes experienced during the 6-month or 12-month intervals prior to the first study or prior to the second study were known.
# cytochrome P450 2C19 = target: T1, cytochrome P450 2C19 (Homo sapiens, UniProt P33261); test: In vitro cytochrome P450 inhibition; format: in vitro ADME; settings: 2 to 200 ng/mL
# T1 construct: from tissue; host or cells: human liver fractions
# Tg.rasH2 mice = settings: Tg.rasH2, mouse, in vivo, 26 weeks
# [3] = system: subjects in remission from hepatic encephalopathy (HE); test: First study: HE-related, HE-caused and all-cause hospitalization; format: in vivo, human
# CYP3A4 = test: Clinical drug interaction: rifaximin 550 mg TID on oral midazolam
# [4] = treatment interval 0 to <28 days
# [5] = treatment interval 28 to <56 days
# [6] = treatment interval 56 to <84 days
# [7] = treatment interval 84 to <140 days
# [8] = treatment interval 140 to <168 days
# T1 sequence (P33261 whole entry): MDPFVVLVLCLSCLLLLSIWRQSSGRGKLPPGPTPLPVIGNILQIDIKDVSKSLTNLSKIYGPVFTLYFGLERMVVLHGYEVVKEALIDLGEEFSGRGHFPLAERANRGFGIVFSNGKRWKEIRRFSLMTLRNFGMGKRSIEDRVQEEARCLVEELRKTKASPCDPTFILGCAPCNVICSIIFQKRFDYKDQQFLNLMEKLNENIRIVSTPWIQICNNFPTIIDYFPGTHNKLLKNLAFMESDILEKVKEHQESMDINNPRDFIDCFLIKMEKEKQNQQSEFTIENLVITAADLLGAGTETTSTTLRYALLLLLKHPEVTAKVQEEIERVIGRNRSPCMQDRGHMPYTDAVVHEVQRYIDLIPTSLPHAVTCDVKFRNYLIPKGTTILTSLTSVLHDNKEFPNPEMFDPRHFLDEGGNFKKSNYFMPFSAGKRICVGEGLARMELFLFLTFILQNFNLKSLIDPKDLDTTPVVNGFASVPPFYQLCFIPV
compound,measurement,setting,value
"CO[C@H]1/C=C/O[C@@]2(C)Oc3c(C)c(O)c4c(O)c(c5c(nc6cc(C)ccn65)c4c3C2=O)NC(=O)/C(C)=C\C=C\[C@H](C)[C@H](O)[C@@H](C)[C@@H](O)[C@@H](C)[C@H](OC(C)=O)[C@@H]1C [rifaximin, (2S,16Z,18E,20S,21S,22R,23R,24R,25 S,26S,27S,28E)-5,6,21,23,25-pentahydroxy-27-methoxy-2,4,11,16,20,22,24,26-octamethyl-2,7-(epoxypentadeca-[1,11,13]trienimino)benzofuro[4,5-e]pyrido[1,2-á]-benzimidazole-1,15(2H)-dione,25-acetate]",Event probability (increase in Conn score during the treatment interval),[1]; [4],0.012
same,Probability of no increase in Conn score,[1]; [4],1.0000
same,Event probability (increase in Conn score during the treatment interval),[1]; [5],0.04
same,Probability of no increase in Conn score,[1]; [5],0.8777
same,Event probability (increase in Conn score during the treatment interval),[1]; [6],0.08
same,Probability of no increase in Conn score,[1]; [6],0.8407
same,Event probability (increase in Conn score during the treatment interval),[1]; [7],0.05
same,Probability of no increase in Conn score,[1]; [7],0.7713
same,Event probability (increase in Conn score during the treatment interval),[1]; [8],0
same,Probability of no increase in Conn score,[1]; [8],0.7302
same,Event probability (increase in Conn score during the treatment interval),[1]; treatment interval ≧168 days,0.03
same,Probability of no increase in Conn score,[1]; treatment interval ≧168 days,0.7302
same,Survival,"[1]; any increase in Conn score, days r10-r15 as E1001",1.0000 and 0.8777 and 0.8407 and 0.7713 and 0.7302
same,subjects with Conn score changes of −1 or no change,[1]; baseline to end of treatment,77.1%
same,"prevention of worsening of Conn score, times versus placebo",[1]; in vivo,2.46 times
same,reduction in risk of first worsening in Conn Score,[1]; in vivo,54%
same,subjects with increases in Conn score,[1]; in vivo,37 of 140
same,time to first increase in Conn scores vs placebo (FIG. 4),[1]; in vivo,increased time to the first increase in Conn scores
same,Cumulative number of events (increase in Conn score),[1]; [4],17
same,Number of events (increase in Conn score),[1]; [4],17
same,Cumulative number of events (increase in Conn score),[1]; [5],22
same,Number of events (increase in Conn score),[1]; [5],5
same,Cumulative number of events (increase in Conn score),[1]; [6],31
same,Number of events (increase in Conn score),[1]; [6],9
same,Cumulative number of events (increase in Conn score),[1]; [7],36
same,Number of events (increase in Conn score),[1]; [7],5
same,Cumulative number of events (increase in Conn score),[1]; [8],36
same,Number of events (increase in Conn score),[1]; [8],0
same,Cumulative number of events (increase in Conn score),[1]; treatment interval ≧168 days,37
same,Number of events (increase in Conn score),[1]; treatment interval ≧168 days,1
same,Subjects with ≧1 breakthrough overt HE episode,[2]; All Rifaximin N = 266,72 (27.1) n (%)
same,Subjects with ≧1 breakthrough overt HE episode,[2]; Continuing Rifaximin N = 70,18 (25.7) n (%)
same,Subjects with ≧1 breakthrough overt HE episode,[2]; New Rifaximin N = 196,54 (27.6) n (%)
same,patients free of breakthrough,[2]; after almost 3 years,approximately 60%
same,subjects with 1 breakthrough HE episode,[2]; all rifaximin,44 subjects
same,subjects with 2 breakthrough HE episodes,[2]; all rifaximin,18 subjects
same,subjects with 3 or more breakthrough HE episodes,[2]; all rifaximin,Ten
same,"reduction in risk of breakthrough HE, continuing subjects vs 3001 placebo",[2]; in vivo,90%
same,subjects with breakthrough overt HE during rifaximin after crossover,[2]; in vivo,15 of 82
same,rate of breakthrough HE episodes adjusted for exposure,[2]; new rifaximin subjects,0.38 events/PEY
same,subjects with >2 HE episodes during rifaximin therapy,"[2]; up to 840 days, first plus second study",3.6%
same,inhibition of 2C19,cytochrome P450 2C19,did not inhibit
same,female mice with ruffled fur and hunched appearance,Tg.rasH2 mice,2/25
same,all-cause hospitalization rate,[3],0.92 events/PEY and 0.90 events/PEY
same,CYP3A4 induction in vivo / midazolam exposure,CYP3A4,only slightly reduced exposure; also recorded: weak inducer of CYP3A4
